Holding throughout (assay): DTP human tumour cell line panel, 48 h
The subject of assay [1] is OVCAR-5.
The test system of assay [2] is IGROV-1.
The test system of assay [3] is UACC-62.
Assay [4] concerns NCI-H460.
In assay [5] the test system is HT-29.
For assay [6], the system named is MDA-N.
Assay [7] concerns DMS-114.
The subject of assay [8] is SF-268.
Assay [9] has as its system NCI-H522.
In assay [10] the test system is MDA-MB-231.
Assay [11] deals with KM-20L2.
Assay [12] relates to MCF7.
The subject of assay [13] is SN12C.
The test system of assay [14] is COLO 205.
Assay [15] has as its system CCRF-CEM.
Assay [16] relates to KM12.
Assay [17] concerns NCI-H226.
Assay [18] relates to SK-OV-3.
Assay [19] concerns SNB-78.
In assay [20] the test system is T47D.

Here are results for 2 compounds from ChEMBL document CHEMBL1201862, “PubChem BioAssay data set” (2004).

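Method: 48-hour compound exposure of cells in 96-well plates, five concentrations, linear interpolation of endpoints. At the GI50, growth is halved.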 Active and inactive are the calls of the source. No stated cut-off is given here; in the data, active = GI50 up to about 1.1 µM and inactive = higher.

With `O=C1N[C@@H]([C@H]2CC[C@H](Cl)CN2)C(=O)N[C@H]1[C@H]1CC[C@H](Cl)CN1`, the GI50 in [1] was 1.25 µM (inactive); in [2], 4.34 µM (inactive); in [3], 0.137 µM (active); in assay [4], 0.116 µM (active); in [5], 1.83 µM (inactive); in [6] it was 0.555 µM (active). The GI50 was 0.269 µM (active) in assay [7]; 0.466 µM (active) in assay [8]; 0.706 µM (active) in assay [9]; 0.925 µM (active) in [10]; 4.93 µM (inactive) in assay [11]; 0.195 µM (active) in assay [12]. The GI50 is 0.243 µM (active) in [13]; 1.99 µM (inactive) in assay [14]; 0.152 µM (active) in assay [15]; 3.3 µM (inactive) in assay [16]; 1.04 µM (active) in [17]; 0.836 µM (active) in assay [18]. For the same compound, the GI50 in assay [19] is 2.94 µM (inactive); in assay [20] it was 0.297 µM (active).
In the case of `CCN(CC)CCNc1ccc2nnn3c4ccc([N+](=O)[O-])cc4c(=O)c1c23`, the GI50 is 13.2 µM (inactive) in [1]; 5.38 µM (inactive) in assay [2]; > 36.4 µM (inactive) in [3]; 3.93 µM (inactive) in [4]; 3.89 µM (inactive) in [5]; 71.8 µM (inactive) in [6]. In addition, the GI50 in assay [7] is 8.53 µM (inactive); in assay [8], 6.37 µM (inactive); in assay [9], 8.15 µM (inactive); in [10] it was 3.94 µM (inactive); in [11] it was 4.94 µM (inactive); in assay [12] it was 3.67 µM (inactive). For the same compound, the GI50 in assay [13] was 7.05 µM (inactive); in [14] it was 4.85 µM (inactive); in [15] it was 4.91 µM (inactive); in assay [16] it was 6.28 µM (inactive); in assay [17], 3.34 µM (inactive); in assay [18] it was > 37.6 µM (inactive). In addition, the GI50 is 9.71 µM (inactive) in [19] and > 100 µM (inactive) in assay [20].
